Assay type in all cases: cell-based
One assay concerns the target T1, BTK-GFP (Homo sapiens, UniProt Q06187+Q96SW2).
T1 construct: expressed in transfected cells; host or cells: HEK293A (Invitrogen R70507), lentiviral transduction with pLenti6-BTK-GFP-Ires-RFP, blasticidin selection
Briefly: BTK-GFP protein abundance flow cytometry assay in HEK293A cells. As to conditions: HEK293A BTK-GFP-iresRFP cells, 24 h; for DC50: GFP signal by flow cytometry, concentration at which 50% maximal degradation was observed; for BTK deg Amax: % protein remaining at the concentration at which maximum degradation is seen. The method, then:
(§1) Compounds of the invention were tested in the following cellular assays. The terms in Table 2 are defined as follows: DC50 refers to the concentration at which 50% maximal degradation was observed; deg Amax is the extent of degradation and the value refers to the % protein remaining at the concentration at which maximum degradation is seen; ProI GI50 refers to the proliferation data and defines the concentration at which 50% growth inhibition was observed compared to the vehicle treated control at the end of the incubation time. TMD8 cells are BTK dependent and OCI-LY3 cells are BTK independent.
BTK-GFP and IKZF3-GFP protein abundance flow cytometry assay in HEK293A cells:
Degradation of BTK or IKZF3 was measured in HEK293A cells (Invitrogen R70507) expressing either BTK-GFP and RFP or IKZF3-GFP and RFP from a stably integrated bicistronic BTK-GFP-iresRFP or IKZF3-GFP-iresRFP construct, respectively. Reduction of the GFP signal measured by flow cytometry served as readout for BTK or IKZF3 degradation after degrader treatment.
i) Cloning of the pLenti6-BTK-GFP-1Res-RFP and IKZF3-GFP-Ires-RFP Sensor Vectors
The bicistronic BTK-GFP-iresRFP construct is based on a pLenti6-DEST vector backbone where GFP was introduced into the unique Xho1 site downstream of the destination cassette (DEST) and RFP was cloned behind an internal ribosomal entry site (Ires).
In detail, the sensor construct was engineered by replacing NanoLuciferase (NLuc) by GFP and FireFly luciferase (FF) by RFP from pLenti6-DEST-NLuc-Ires-FF.
The pLenti6-DEST-NLuc-Ires-FF sensor construct was cloned by replacing eGFP from pLenti6-DEST-ires-eGFP with a synthesized stuffer element (encoding Ires-FF with FF flanked by two Nhe1 restriction sites) using blunt end cloning replacing Ires-eGFP between the two PmII. To enable C-terminal tagging with NanoLuciferase (NLuc), NLuc was amplified from pNL1.1 (Promega #N1001) using linker primers with Xho1 sites for ligating into linearized pLenti6-DEST-Ires-FF using Xho1 digest resulting in the construct pLenti6-DEST-NLuc-Ires-FF.
The pLenti6-DEST-NLuc-Ires-FF served as base vector for cloning pLenti6-DEST-GFP-Ires-RFP using Gibson assembly to replace FF with RFP and NLuc with GFP. In a first round FF was replaced by RFP by amplifying RFP from a template using the following Gibson assembly linker primers (Gibson-Nhe1 RFPfw, […]gctagc[…] (SEQ ID NO: 1); Gibson-Nhe1 RFP-Stoprev, […]ctagc[…] (SEQ ID NO: 2)) to clone into pLenti6-DEST-NLuc-Ires-FF digested with Nhe1 and gel-purified to remove the FF fragment. The resulting pLenti6-DEST-NLuc-Ires-RFP vector served as the template to replace NLuc with GFP by amplifying GFP from a template using following Gibson assembly linker primers (Gibson-Xho1 GFPfw, […]c[…] (SEQ ID NO: 3); Gibson-Xho1 GFP-Stoprev, […] (SEQ ID NO: 4)) to clone into pLenti6-DEST-NLuc-Ires-RFP digested with Xho1 and gel-purified to remove the NLuc fragment. All Gibson assembly reactions were performed with Gibson assembly Master Mix (New England Biolabs NEB E261 IL) according to manufacturer's manual, resulting in the destination vector pLenti6-DEST-GFP-Ires-RFP to allow Gateway cloning. To enable gateway cloning and C-terminal GFP tagging of BTK, the BTK open reading frame (ORF) was first shuttled from a pcDNA-DEST40-BTK vector (Invitrogen library ID INV_20090504v1) into pDONR221 (Invitrogen 12536-017) vector using a gateway BP reaction according to the manufacturer's manual (Invitrogen 11789-013) resulting in the novel construct pENTR221-BTK. For C-terminal tagging the STOP codon was mutated to a leucine performing a mutagenesis reaction with the following primers (pENTR221-BTK Quikchange STOP-Leu fw, gtcatggatgaagaatccTTGaacccagctttcttgtac; pENTR221-BTK Quikchange STOP-Leu REVC, gtacaagaaagctgggttCAAggattcttcatccatgac) using the QuikChange Lightning mutagenesis kit (Agilent Technologies #210518) according to the manufacturer's manual, resulting in pENTR221-BTK (STOP-Leu). […]
Background: Flow cytometry measures light scatter and fluorescence of single cells or particles in a stream.

The test system of a further assay is TMD8 cells. Briefly: Resazurin cell viability (proliferation) assay in TMD8 DLBCL cells. To be noted: Homo sapiens, TMD8 cells (BTK dependent), 72 h, 50% growth inhibition vs vehicle, read-out: TMD8 Prol GI50. The method, then:
as §1
(§2) Cell Viability Assay in DLBCL (Diffuse Large B-Cell Lymphoma) Cells:
(§3) The effect of the BTK compounds on cell proliferation was measured by a Resazurin (Sigma, #R7017) based cell viability assay. TMD8 (BTK compound sensitive) and OCI-LY3 (BTK compound insensitive) cells were incubated for 72 h at 37° C. and 5% CO2 with the corresponding compound, Resazurin is a non-toxic, cell-permeable substrate that is virtually non-fluorescent. Upon entering living cells, Resazurin (Sigma, #R7017) is reduced to highly fluorescent Resorufin. The metabolic activity was assessed by measuring the fluorescence signal (ex. 530 nm; em. 600 nm).
(§4) TMD8 and OCI-Ly3 cells were seeded at day 0 in triplicates at a cell density of 1×10^4 cells per 150 μl/well in a 96-well plate (Costar #3904). Additional plates were prepared, in order to assess the basal metabolic activity of both cell lines at the beginning of the experiment. For these reference plates, Resazurin (Sigma, #R7017) was added to a final concentration of 13 μg/ml 3 h post seeding and was incubated for 2 h at 37° C. and 5% CO2. Following incubation, the fluorescent signal intensity of the 96-well plates was measured on a Mithras LB940 multimode plate reader at 530/600 nm (Berthold Technologies, Germanyl).
(§5) In parallel, 3 h post-seeding, test-plates were treated with compound at various concentrations, or with vehicle (DMSO) alone for 3 days. The compound addition to the plates was performed by using a HP D300 digital dispenser (TECAN, Switzerland). The compounds were tested in triplicate, 8-point serial dilution (1:4), with a start concentration of 10 μM for OCI-LY3 and 1 μM for the TMD8 cells, respectively. To assess the relative proliferation of the cells, Resazurin was added to each well directly to the medium to a final concentration of 13 μg/ml. The plates were incubated for 2 h at 37° C. and 5% CO2 to result in a 72 h endpoint. Following incubation, the fluorescent signal intensity of the 96-well plates were measured on a Mithras LB940 multimode plate reader at 530/600 nm (Berthold Technologies, Germanyl). The formation of Resorufin dye directly correlates with the number of metabolically active cells. For each triplicate treatment the mean and standard deviation were calculated and analyzed via curve fitting software to determine the respective compound concentration resulting in 50% growth inhibition (GI50) values. For each compound GI50 values were typically determined from at least 2 entirely independent experiments.
TMD8 cells were acquired through a license agreement with Tokyo Medical and Dental University, Japan. Cells are cultivated in MEM Alpha (BioConcept, #1-23F01-1, lot. LB04262P) supplemented with 10% FCS (HyClone, GE #SH30066.03, lot AB3217603), 2 mM L-Glutamine (BioConcept, #5-10K50-H, lot. LA03467P), 1% Pen/Strep (BioConcept, #4-01F00-H, lot. LB04235P).
(Resazurin is reduced to fluorescent resorufin, in cell work by metabolically active cells.)

Another assay deals with OCI-LY3 cells. Briefly: Resazurin cell viability (proliferation) assay in OCI-LY3 DLBCL cells. To be noted: Homo sapiens, OCI-LY3 cells (BTK independent), 72 h, 50% growth inhibition vs vehicle, read-out: OCI-LY3 Prol GI50. The procedure: as §1, §2, §3, §4, §5
OCI-LY3 cells were acquired through a license agreement with University Health Network, Toronto, Canada. Cells are cultivated in RPM11640 media (Gibco, #61870-010, lot. 1894759), supplemented with 10% FCS (HyClone, GE #SH30066.03, lot AB217603), 2 mM L-Glutamine (BioConcept, #5-10K50-H, lot. LA03467P), 1 mM Sodium Pyruvate (BioConcept, #5-60F00-H, lot. LB10510P), 10 mM HEPES (Gibco, #15630-056, lot. 1854074), 1% Pen/Strep (BioConcept, #4-01F00-H, lot. LB04235P).

This is an account of results in patent US12441733B2, “Substituted 2,4-dioxotetrahydropyrimidines as intermediates in the synthesis of bruton's tyrosine kinase inhibitors” (Novartis AG, priority 2018, dated 2025).

T1 sequence (Q06187 whole entry): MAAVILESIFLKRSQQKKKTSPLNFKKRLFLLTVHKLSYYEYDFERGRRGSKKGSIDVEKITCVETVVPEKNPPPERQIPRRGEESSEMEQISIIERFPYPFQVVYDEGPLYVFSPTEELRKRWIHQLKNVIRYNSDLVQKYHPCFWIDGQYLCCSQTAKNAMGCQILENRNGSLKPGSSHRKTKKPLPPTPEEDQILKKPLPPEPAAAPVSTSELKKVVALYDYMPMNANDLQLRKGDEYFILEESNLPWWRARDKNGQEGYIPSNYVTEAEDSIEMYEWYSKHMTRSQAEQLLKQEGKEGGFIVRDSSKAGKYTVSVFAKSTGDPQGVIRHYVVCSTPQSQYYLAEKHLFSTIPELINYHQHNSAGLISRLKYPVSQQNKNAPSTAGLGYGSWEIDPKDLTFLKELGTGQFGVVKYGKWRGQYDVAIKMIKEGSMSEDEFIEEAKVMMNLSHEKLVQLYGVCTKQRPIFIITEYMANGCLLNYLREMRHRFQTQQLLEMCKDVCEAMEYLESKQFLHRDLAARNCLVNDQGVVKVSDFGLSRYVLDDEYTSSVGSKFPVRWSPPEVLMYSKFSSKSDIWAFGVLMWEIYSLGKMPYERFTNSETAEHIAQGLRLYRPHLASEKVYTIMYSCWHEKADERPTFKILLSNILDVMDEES
T1 sequence (Q96SW2 whole entry): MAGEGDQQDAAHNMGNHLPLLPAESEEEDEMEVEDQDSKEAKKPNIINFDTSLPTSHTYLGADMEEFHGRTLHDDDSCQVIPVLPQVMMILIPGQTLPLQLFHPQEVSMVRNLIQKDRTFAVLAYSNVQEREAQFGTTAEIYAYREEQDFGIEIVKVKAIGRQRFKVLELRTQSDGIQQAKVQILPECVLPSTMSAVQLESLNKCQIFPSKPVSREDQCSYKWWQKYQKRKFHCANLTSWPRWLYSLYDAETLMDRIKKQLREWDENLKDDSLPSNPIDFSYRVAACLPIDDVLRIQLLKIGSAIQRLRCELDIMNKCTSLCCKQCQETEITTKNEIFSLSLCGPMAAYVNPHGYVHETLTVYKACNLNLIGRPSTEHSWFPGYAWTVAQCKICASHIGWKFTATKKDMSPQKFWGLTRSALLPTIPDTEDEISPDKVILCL
T1 sequence (Q16531 whole entry partner): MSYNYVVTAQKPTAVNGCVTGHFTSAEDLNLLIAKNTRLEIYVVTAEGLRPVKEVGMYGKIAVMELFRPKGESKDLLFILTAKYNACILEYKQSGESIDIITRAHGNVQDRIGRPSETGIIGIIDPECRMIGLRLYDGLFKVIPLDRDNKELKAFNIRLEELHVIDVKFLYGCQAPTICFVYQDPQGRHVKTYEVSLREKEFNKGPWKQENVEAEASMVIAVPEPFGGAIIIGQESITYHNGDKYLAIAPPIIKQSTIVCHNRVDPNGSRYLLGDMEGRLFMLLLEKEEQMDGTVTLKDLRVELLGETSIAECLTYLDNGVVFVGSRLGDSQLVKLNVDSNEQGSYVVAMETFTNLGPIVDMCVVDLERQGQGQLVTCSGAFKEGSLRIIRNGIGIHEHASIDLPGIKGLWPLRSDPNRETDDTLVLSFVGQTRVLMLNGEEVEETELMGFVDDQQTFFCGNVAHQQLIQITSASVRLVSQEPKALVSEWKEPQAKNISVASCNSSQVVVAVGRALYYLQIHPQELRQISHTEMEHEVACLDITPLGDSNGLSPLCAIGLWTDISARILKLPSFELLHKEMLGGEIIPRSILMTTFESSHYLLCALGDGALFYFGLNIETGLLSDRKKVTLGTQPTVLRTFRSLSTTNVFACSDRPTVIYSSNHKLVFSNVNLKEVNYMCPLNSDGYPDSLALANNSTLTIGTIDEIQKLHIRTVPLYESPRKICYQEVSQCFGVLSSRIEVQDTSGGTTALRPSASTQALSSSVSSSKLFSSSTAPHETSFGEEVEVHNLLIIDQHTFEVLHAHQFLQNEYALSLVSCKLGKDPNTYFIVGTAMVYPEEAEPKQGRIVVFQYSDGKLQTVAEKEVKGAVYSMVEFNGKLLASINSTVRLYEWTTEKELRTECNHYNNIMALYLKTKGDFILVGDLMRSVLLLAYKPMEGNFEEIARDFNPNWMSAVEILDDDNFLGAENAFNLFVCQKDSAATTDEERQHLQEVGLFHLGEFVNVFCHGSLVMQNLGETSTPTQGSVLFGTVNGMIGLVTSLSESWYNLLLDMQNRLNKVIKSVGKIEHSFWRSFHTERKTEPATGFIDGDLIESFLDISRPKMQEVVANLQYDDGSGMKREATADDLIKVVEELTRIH

`COc1ccc(C(=O)N2CCC(OC(CO)CN3CCC(Oc4ccc(-c5cc6c(-c7cc(F)cc(NC(=O)c8ccc(C(C)(C)O)cc8F)c7C)ncnc6[nH]5)cc4)CC3)CC2)cc1N1CCC(=O)NC1=O` (racemic) [Compound 18, rac-N-(3-(6-(4-((1-(2-((1-(3-(2,4-Dioxotetrahydropyrimidin-1(2H)-yl)-4-methoxybenzoyl)piperidin-4-yl)oxyl)-3-hydroxypropyl)piperidin-4-yl)oxyl)phenyl)-7H-pyrrolo[2,3-d]pyrimidin-4-yl)-5-fluoro-2-methylphenyl)-2-fluoro-4-(2-hydroxypropan-2-yl)benzamide] yielded a half-maximal degradation concentration (DC50) on BTK-GFP of 10.8 nM. Further, the “BTK deg Amax” value at BTK-GFP was found to be 3.4%. In addition, the results for the GI50 in the assay with TMD8 cells and in the assay on OCI-LY3 cells were 1.58 nM and 4320 nM, respectively.
On the same counts, the results for `COc1ccc(C(=O)N2CCC3(CCN(Cc4ccc(-c5cc6c(-c7cc(F)cc(NC(=O)c8ccc(C(C)(C)O)cc8F)c7C)ncnc6[nH]5)cc4)CC3)[C@H](CO)C2)cc1N1CCC(=O)NC1=O` (single isomer, unassigned) [Compound 3] are 19.1 nM, 3.6%, 2.24 nM and greater than 10000 nM.
On the same counts, the results for `Cc1c(NC(=O)c2ccc(C(C)(C)O)cc2F)cc(F)cc1-c1ncnc2[nH]c(-c3ccc(CN4CCC5(CCN(CCCNC(=O)c6ccc(Cl)c(N7CCC(=O)NC7=O)c6)CC5)CC4)cc3)cc12` [Compound 57, N-(3-(6-(4-((9-(3-(4-chloro-3-(2,4-dioxotetrahydropyrimidin-1(2H)-yl)benzamido)propyl)-3,9-diazaspiro[5.5]undecan-3-yl)methyl)phenyl)-7H-pyrrolo[2,3-d]pyrimidin-4-yl)-5-fluoro-2-methylphenyl)-2-fluoro-4-(2-hydroxypropan-2-yl)benzamide] are 14.4 nM, 8.9%, 1.16 nM and 4400 nM.
For `Cc1c(NC(=O)c2ccc(C(C)(C)O)cc2F)cc(F)cc1-c1ncnc2[nH]c(-c3ccc(CN4CCC5(CC4)CN(CCCNC(=O)c4ccc(Cl)c(N6CCC(=O)NC6=O)c4)CCO5)cc3)cc12` [Compound 48, N-(3-(6-(4-((4-(3-(4-chloro-3-(2,4-dioxotetrahydropyrimidin-1(2H)-yl)benzamido)propyl)-1-oxa-4,9-diazaspiro[5.5]undecan-9-yl)methyl)phenyl)-7H-pyrrolo[2,3-d]pyrimidin-4-yl)-5-fluoro-2-methylphenyl)-2-fluoro-4-(2-hydroxypropan-2-yl)benzamide] the same measures were 20.8 nM, 9.4%, 2.23 nM and 3600 nM.
Take `COc1ccc(C(=O)NCCCCN2CCN(Cc3ccc(-c4cc5c(-c6cc(F)cc(NC(=O)c7ccc(C(C)(C)O)cc7F)c6C)ncnc5[nH]4)cc3)CC2)cc1N1CCC(=O)NC1=O` [Compound 26, N-(3-(6-(4-((4-(4-(3-(2,4-Dioxotetrahydropyrimidin-1(2H)-yl)-4-methoxybenzamido)butyl)piperazin-1-yl)methyl)phenyl)-7H-pyrrolo[2,3-d]pyrimidin-4-yl)-5-fluoro-2-methylphenyl)-2-fluoro-4-(2-hydroxypropan-2-yl)benzamide]: at BTK-GFP, half-maximal degradation (DC50) was put at 25 nM and the “BTK deg Amax” value was 4.3%. Moreover, in the assay with TMD8 cells, the GI50 was 1.92 nM. In addition, the GI50 in the assay on OCI-LY3 cells amounted to 4760 nM.
For `COc1ccc(C(=O)N2CC3(CCN(Cc4ccc(-c5cc6c(-c7cc(F)cc(NC(=O)c8ccc(C(C)(C)O)cc8F)c7C)ncnc6[nH]5)cc4)CC3)C2)cc1N1CCC(=O)NC1=O` [Compound 32] the same measures were 34.2 nM, 15.4%, 6.31 nM and 7440 nM.

A word on the DC50: it is the concentration at which degradation of the target reaches its halfway point. Low values mean degradation at low concentration, high ones degradation only at high concentration. As a reminder, the GI50 is the concentration at which growth is held to half of that of the control.
